We go through one substance from patent US20220145303A1, “FRAGILE X MENTAL RETARDATION PROTEIN INTERFERING OLIGONUCLEOTIDES AND METHODS OF USING SAME” (Nogra Pharma Limited, priority 2019, published 2022).

What all share (format): cell-based, human
One data set deals with FMRP. As to the kind of experiment: FMRP knockdown: Western blot of FMRP after transfection with FMRP antisense or sense oligonucleotide. Particulars: 48 hours, AS 0.5-100 nM, S 100 nM. The method, then:
Total proteins were extracted from mouse colonic tissues, and lysed on ice in buffer containing 10 mM HEPES [pH 7.9], 10 mM KCl, 0.1 mM EthyleneDiamineTetraacetic Acid (EDTA), 0.2 mM Ethylene Glycol-bis (β-aminoethyl ether)-N,N,N′,N′-Tetraacetic Acid (EGTA) and 0.5% Nonidet P40 supplemented with 1 mM dithiothreitol (DTT), […], […], 1 mM phenylmethylsulfonyl fluoride (PMSF), 1 mM Na3VO4, and 1 mM NaF. Lysates were clarified by centrifugation and separated on sodium dodecyl sulphate (SDS)-polyacrylamide gel electrophoresis. Blots were incubated with antibodies against: FMRP (Cell Signaling, Danvers, Mass.), followed by a secondary antibody conjugated to horseradish peroxidase (Dako, Milan, Italy). After analysis, each blot was stripped and incubated with a mouse-anti-human monoclonal β-actin antibody (Sigma-Aldrich) to ascertain equivalent loading of the lanes.
Human CRC cell lines, DLD-1 and HCT-116, were obtained from the American Type Culture Collection (ATCC, Manassas, Va.) and cultured in RPMI 1640 (DLD-1) and McCoy's 5A (HCT-116) medium, respectively. All media were supplemented with 10% fetal bovine serum, 1% penicillin/streptomycin (both from Lonza, Verviers, Belgium). The normal human colon epithelial cell line (HCEC-1ct) was obtained from EVERCYTE GmbH (Vienna, Austria) and cultured in ColoUp® medium (EVERCYTE GmbH). Cells were maintained in a 37° C., 5% CO2, fully humidified incubator. Cell line lysates were prepared and analyzed by SDS-polyacrylamide gel electrophoresis/immunoblot using methods as previously described in Example 2. For immunofluorescent staining, cell lines were fixed with 3.7% formaldehyde for 10 minutes at 4° C., permeabilized with 0.1% Triton for 10 minutes at room temperature and blocked (1% bovine serum albumin, Tween 0.1%, glycine 2%) for 1 hour at room temperature. Fixed and blocked cells were incubated with anti-FMRP monoclonal antibody (1:500, Cell Signaling, Danvers, Mass.) overnight at 4° C. After washing with PBS, secondary antibody goat anti-rabbit Alexa 488 (1:2000, A11008; Invitrogen) was applied for 1 hour at room temperature. Slides were washed with PBS, mounted using Prolong Gold® anti-fade reagent with 4′,6-diamidino-2-phenylindole (P36931; Invitrogen) and analyzed by a Leica DMI4000 B microscope with Leica application suite software (V4.6.2).
Phosphorothioate single-stranded antisense oligonucleotides complementary to human FMRP [5′-[…]-3′ (SEQ ID NO: 6)] and single-stranded sense oligonucleotides [5′-[…]-3′ (SEQ ID NO: 15)] were synthesized. CRC cell lines and HCEC-1ct cells were transfected with either FMRP antisense (AS)(final concentration 0.5-100 nM) or FMRP sense oligonucleotide (S) (final concentration100 nM) for 24 and 48 hours, using Opti-MEM medium and lipofectamine 3000 reagent (Thermo Fisher Scientific, Waltham, Mass., USA) according to the manufacturer's instructions.

The subject of another data set is HCEC-1ct cells. As to the kind of experiment: Cell death by AnnexinV/PI flow cytometry in HCEC-1ct cells. Particulars: 24 hours, AS 0.5 nM and 100 nM, FIGS. 3J, 3K. The method, then:
Cells were transfected with either FMRP antisense oligonucleotide (AS)(final concentration 0.5 nM and 100 nM) or FMRP sense oligonucleotide (S)(final concentration 100 nM). After 24 hours (FIGS. 3E, 3F, 3J and 3K) or 48 hours (FIG. 3H), cells were collected, washed two times in Annexin V (AV) buffer, stained with FITC-AnnexinV (final dilution 1:100; Immunotools, Friesoythe, Germany) according to the manufacturer's instructions, and incubated with […] of propidium iodide (PI) for 30 min at 4° C. Cells were also transfected with either FMRP sense oligonucleotide or FMRP AS oligonucleotide (final concentration 100 nM) for 36 hours and analyzed for activated caspase 3 and caspase 8. As positive and negative controls, cells were treated, respectively, with staurosporin (final concentration 1 μM, Sigma-Aldrich Milan, Italy) or Q-VD-OPh (a pan-caspase inhibitor; final concentration 1 μM) (R&D Systems, Inc, Minneapolis, Minn.). Additionally, 36 hours (FIGS. 4F and 4G) or 48 hours post-transfection (FIGS. 4D and 4E), cells were pulsed with […] bromodeoxyuridine for 60 minutes, fixed in 70% cold ethanol, and stored at −20° C. for at least 3 hours. […] Fluorescence was measured using Gallios Flow Cytometer (Beckman Coulter, Life Sciences, Pasadena, Calif., USA) and analyzed using Kaluza software (Beckman Coulter). […]
On the technique in general: In flow cytometry, cells or beads pass a laser one at a time.

Another data set has as its system E-cadherin. Nature of the data set: Western blot of E-cadherin in HCT-116 cells. Particulars: HCT-116, AS 0.5 nM, 48 hours, vs untreated or sense, FIGS. 8E, 8F. The method, then: To determine whether FMRP regulates levels of E-cadherin and/or β-catenin, key proteins associated with cellular adhesion, cytoskeletal remodeling, and inhibition of tumor migration and invasion, cells were left untreated (U), or transfected with either FMRP sense (S) oligonucleotide (final concentration 0.5 nM) or FMRP antisense (AS) oligonucleotide (final concentration 0.5 nM) for 48 hours.
Recent studies have described a novel tumor suppressor function of MCC in the regulation of E-cadherin/β-catenin complex-mediated cell-cell adhesion in colorectal cells. To investigate whether MCC mediates the observed increase of E-cadherin and β-catenin expression in HCT-116 cells transfected with antisense FMRP oligonucleotide (e.g., FIGS. 8E-8G), cells were left untreated (U) or transfected with sense FMRP oligonucleotide (final concentration 0.5 nM), or antisense FMRP oligonucleotide (final concentration 0.5 nM), and/or control siRNA (siRNA Ctrl) or siRNA specific for MCC (siRNA MCC) for 48 hours.
(In general: Immunoblotting shows a protein as a band on a membrane.)

The test system of a further data set is MCC. Nature of the data set: Western blot of MCC in HCT-116 cells. Particulars: HCT-116, AS 0.5 nM, 48 hours, vs untreated or sense, FIGS. 9A, 9B. How it is done: To investigate whether FMRP regulates MCC, a protein known to interact with the E-cadherin/β-catenin complex, HCT-116 cells were left untreated (U) or transfected with sense FMRP oligonucleotide (S) (final concentration 0.5 nM) or antisense FMRP oligonucleotide (AS) (final concentration 0.5 nM) for 48 hours.

Regarding “5′-TCCACCACCAGCTCCTCCAT-3′ (all phosphorothioate, sugars by position and methylation of C not given here) [FMRP antisense oligonucleotide, Phosphorothioate single-stranded antisense oligonucleotides complementary to human FMRP]”, the FMRP expression entry in the data set on FMRP (DLD-1 cells, FIG. 3D) is listed as “significantly inhibited FMRP expression”; in the data set on FMRP (HCEC-1ct cells, FIG. 3I), “significantly inhibited FMRP expression”; in the data set on FMRP (HCT-116 cells, FIG. 3G) it was “significantly inhibited FMRP expression”. Besides, the “number of AnnexinV+ or AnnexinV+ PI+ cells” value in the data set with HCEC-1ct cells is given as “neither HCT-116 cells nor HCRC-1ct cells treated with FMRP antisense oligonucleotide exhibited an increased number”. Further, the E-cadherin protein expression entry with E-cadherin is “significantly increased”. Further, the MCC protein expression entry in the data set on MCC is listed as “significantly increased expression of MCC”.
